Biological target: Mycobacterial membrane protein large 3 (Mmpl3) (Mycolicibacterium smegmatis, UniProt A0QP27)
Assay: MicroScale Thermophoresis
Format: binding

Mycobacterial membrane protein large 3 (Mmpl3), sequence (A0QP27 whole entry): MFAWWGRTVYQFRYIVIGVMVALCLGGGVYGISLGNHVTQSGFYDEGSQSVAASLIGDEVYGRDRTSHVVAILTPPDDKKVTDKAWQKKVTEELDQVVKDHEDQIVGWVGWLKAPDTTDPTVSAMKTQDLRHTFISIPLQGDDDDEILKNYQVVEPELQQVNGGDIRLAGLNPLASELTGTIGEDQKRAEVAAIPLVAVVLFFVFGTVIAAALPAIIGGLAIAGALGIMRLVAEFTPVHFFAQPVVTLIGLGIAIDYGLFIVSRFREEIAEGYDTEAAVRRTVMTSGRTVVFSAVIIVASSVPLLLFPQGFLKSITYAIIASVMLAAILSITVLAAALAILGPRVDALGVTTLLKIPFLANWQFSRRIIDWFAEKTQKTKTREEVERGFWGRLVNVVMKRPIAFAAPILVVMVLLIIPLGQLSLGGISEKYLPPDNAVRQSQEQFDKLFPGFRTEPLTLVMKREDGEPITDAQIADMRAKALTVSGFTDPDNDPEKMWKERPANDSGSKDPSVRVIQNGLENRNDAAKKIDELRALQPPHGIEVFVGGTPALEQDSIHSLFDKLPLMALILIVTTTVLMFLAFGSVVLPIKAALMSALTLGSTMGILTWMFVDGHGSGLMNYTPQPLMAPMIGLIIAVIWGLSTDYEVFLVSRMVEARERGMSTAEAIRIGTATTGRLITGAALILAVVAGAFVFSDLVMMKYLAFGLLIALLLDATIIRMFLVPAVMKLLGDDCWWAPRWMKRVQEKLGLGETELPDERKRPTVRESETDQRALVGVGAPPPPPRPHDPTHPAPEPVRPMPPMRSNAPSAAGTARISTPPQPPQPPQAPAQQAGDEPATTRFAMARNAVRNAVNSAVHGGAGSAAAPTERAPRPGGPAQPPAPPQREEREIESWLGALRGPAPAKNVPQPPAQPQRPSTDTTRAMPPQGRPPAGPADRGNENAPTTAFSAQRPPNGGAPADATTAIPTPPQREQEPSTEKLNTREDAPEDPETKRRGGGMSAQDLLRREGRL

SMILES: CC(C)=CCC/C(C)=C/CNCCNC1C2CC3CC(C2)CC1C3 (stereo not shown) [SQ109]
- Kd: 1560 nM

Source: article PMC9205682 (Biochimica et biophysica acta. Biomembranes, 2021)
